Legend:
[1] = tested on: QR activity in Hepa 1c1c7 murine hepatoma cells; experiment: Inducer activity: QR induction in Hepa 1c1c7 microtiter bioassay, extracts untreated with myrosinase; type: cell-based; conditions: without myrosinase hydrolysis
Procedure: Inducer activity or Phase 2 enzyme-inducing activity is a measure of the ability of a compound(s) to induce Phase 2 enzyme activity. In the present invention, inducer activity is measured by means of the murine hepatoma cell bioassay of QR activity in vitro. Inducer activity is defined herein as QR inducing activity in Hepa 1c1c7 cells (murine hepatoma cells) incubated with extracts of sprouts, seeds or other plant parts untreated with myrosinase. Inducer activity is measured in Hepa 1c1c7 murine hepatoma cells grown in 96-well microtiter plates. Typically 10,000 Hepa 1c1c7 cells are introduced into each well. Hepatoma cells are grown for 24 hours and a plant extract containing microgram quantities of fresh plant tissue is serially diluted across the microtiter plates into fresh culture medium containing 0.15 ml αMEM culture medium amended with 10% Fetal Calf Serum (FCS) and streptomycin and penicillin. The cells are further incubated for 48 hours. QR activity (based on the formation of the blue-brown reduced tetrazolium dye) is measured with an optical microtiter plate scanner in cell lysates prepared in one plate, and related to its protein concentration. Quantitative information on specific activity of QR is obtained by computer analysis of the absorbances. One unit of inducer activity is the amount that when added to a single microtiter well doubles the QR activity. […]

[2] = tested on: QR activity in Hepa 1c1c7 murine hepatoma cells; experiment: Inducer potential: QR induction in Hepa 1c1c7 microtiter bioassay, myrosinase-treated extracts; type: cell-based; conditions: ammonium salts of isolated peaks
Procedure: Inducer potential or Phase 2 enzyme-inducing potential is a measure of the combined amounts of inducer activity in plant tissue provided by isothiocyanates, plus glucosinolates that can be converted by myrosinase to isothiocyanates. Glucosinolates are not themselves inducers of mammalian Phase 2 enzymes, whereas isothiocyanates are inducers. Inducer potential therefore is defined herein as QR activity in murine 1c1c7 hepatoma cells incubated with myrosinase-treated extracts of the sprouts, seeds or other plant parts. In the present invention therefore inducer potential is measured by means of the murine hepatoma cell bioassay of QR activity in vitro as described above. Inducer potential is measured in Hepa 1c1c7 murine hepatoma cells grown in 96-well microtiter plates. […] Hepatoma cells are grown for 24 hours and a plant extract containing microgram quantities of fresh plant tissue is serially diluted across the microtiter plates into fresh culture medium containing 0.15 ml αMEM culture medium amended with 10% Fetal Calf Serum (FCS) and streptomycin and penicillin. […] QR activity (based on the formation of the blue-brown reduced tetrazolium dye) is measured with an optical microtiter plate scanner in cell lysates prepared in one plate, and related to its protein concentration. Quantitative information on specific activity of QR is obtained by computer analysis of absorbances. […]

[3] = tested on: QR activity in Hepa 1c1c7 murine hepatoma cells; conditions: reported values, cited from earlier work

Row | Structure (SMILES) | Inducer activity of isolated PIC peaks [1] | Inducer potency after myrosinase hydrolysis [2] | Inducer potency corresponding to reported CD value ([3]; Hepa 1c1c7) | CD value (concentration required to double QR specific activity) ([3]; Hepa 1c1c7 murine hepatoma cells) [µM]
1 | C[S+]([O-])CCCC/C(=N\OS(=O)(=O)O)S[C@@H]1O[C@H](CO)[C@@H](O)[C@H](O)[C@H]1O (single isomer, unassigned; peak a) [Peak A, 4-methylsulfinylbutyl glucosinolate] | no significant inducer activity | 36,100 units/μmol | – | –
2 | CSCCCCC(=NOS(=O)(=O)O)S[C@@H]1O[C@H](CO)[C@@H](O)[C@H](O)[C@H]1O (single isomer, unassigned; peak c) [Peak C, 4-methythiobutyl glucosinolate] | no significant inducer activity | 4,360 units/μmol | – | –
3 | C[S+]([O-])CCCCN=C=S (stereo not drawn) [sulforaphane] | – | – | 33,333 units/μmol | 0.2
